# Where two headings read alike, the source gives them in different places.
# Columns and labels:
# [1] = tested on: neuronal calcium homeostasis; test: Neuronal calcium homeostasis, confocal microscopy (Fluo-3); conditions: 100 μM, FIG. 2(b)
# Procedure: (§1) The neurocytotoxicity assay of AAQMs was conducted as per Dow et al.; The antimalarial potential of 4-quinolinecarbinolamines may be limited due to neurotoxicity and cross-resistance in mefloquine-resistant Plasmodium falciparum strains; Chemother. (48) 2624-2632 (2004) and is incorporated herein, by reference. This assay utilizes primary rat forebrain neurons and is a multi-endpoint screen. […] The AAQMs outlined in Table 1 were screened at 10, 100 and 1000 μM in triplicate, and the reduction in viability observed was determined using the 3-(4,5-dimethylthiazol-2-yl)-2,5-diphenyltetrazolium bromide (MTT) assay as per Dow et al., discussed above. Approximate IC50 values were calculated on the basis of the level of inhibition observed at each concentration. […] IC50s were calculated using Prism. […] Neurons were exposed to DNQX (100 μM) or magnesium (12 mM) for 5 min, followed by mefloquine (25 μM) or WR069878 (250 μM) for 20 min after which reduction in cell viability was determined. […] The effects of mefloquine and WR069878 on neuronal calcium homeostasis were assessed utilizing confocal microscopy as per Dow et al, as discussed in Antimicrob Agents Chemother. […] Subsequent changes in neuronal calcium homeostasis were recorded as fluctuations in the emitted fluorescence of fluo-3-complexed calcium at 530 nm (excitation was 488 nm). […]
# [2] = tested on: primary rat forebrain neurons; test: Neuroprotection experiments with DNQX and magnesium; conditions: DNQX 100 μM or magnesium 12 mM; mefloquine 25 μM, WR069878 250 μM; FIG. 2(c)
# Procedure: as §1
# [3] = molecular target: human multiple drug resistance transporter (MDR1), P-glycoprotein (Homo sapiens, UniProt P08183); conditions: not told; cited from earlier work
# [4] = Phototoxicity in mice (historical experiments); conditions: WR030090: 25 or 50 mg/kg orally, WRAIR archival data
# [5] = humans; cited from earlier work
# [6] = rats; cited from earlier work
# [7] = tested on: P. falciparum TM91C235; test: In vitro antimalarial activity against P. falciparum TM91C235; format: cell-based, Plasmodium falciparum
# Procedure: (§2) The in vitro activities of AAQMs against P. falciparum strains W2, D6, TM91C235 and TM90C2A were evaluated using the method of Desjardins et al. as modified by Milhous et al. W2 is chloroquine resistant and mefloquine sensitive, D6 is chloroquine sensitive but naturally less susceptible to mefloquine, TM91C235 is resistant to mefloquine, chloroquine and pyrimethamine as is TM90C2A, however this latter parasite is a two pfmdr1 copy strain. We routinely run mefloquine in this screen as a control to ensure assay validity.
# [8] = tested on: P. falciparum TM90C2A; test: In vitro antimalarial activity against P. falciparum TM90C2A; format: cell-based, Plasmodium falciparum
# Procedure: as §2
# [9] = tested on: primary rat forebrain neurons; test: Neurocytotoxicity assay (MTT)
# Procedure: The neurocytotoxicity assay of AAQMs was conducted as per Dow et al.; The antimalarial potential of 4-quinolinecarbinolamines may be limited due to neurotoxicity and cross-resistance in mefloquine-resistant Plasmodium falciparum strains; Chemother. (48) 2624-2632 (2004) and is incorporated herein, by reference. This assay utilizes primary rat forebrain neurons and is a multi-endpoint screen. […] The AAQMs outlined in Table 1 were screened at 10, 100 and 1000 μM in triplicate, and the reduction in viability observed was determined using the 3-(4,5-dimethylthiazol-2-yl)-2,5-diphenyltetrazolium bromide (MTT) assay as per Dow et al., discussed above. Approximate IC50 values were calculated on the basis of the level of inhibition observed at each concentration. Full dose response assays were run for mefloquine and WR069878 with two fold dilutions (n=6 wells per dilution) and 11 dilutions for each drug. IC50s were calculated using Prism. Each time the assay is conducted, 20 μM mefloquine is included, as a control. […] Assays are re-run if the loss of viability induced by mefloquine is <40% or >60%. Neuroprotection experiments with 6,7-dinitroquinoxaline-2,3-dione (DNQX) and magnesium were performed as per Dow et al.; Transcriptional profiling of mefloquine-induced disruption of calcium homeostasis in neurons in vitro; Genomics (86)539-550 (2005), which is incorporated by reference, herein. Neurons were exposed to DNQX (100 μM) or magnesium (12 mM) for 5 min, followed by mefloquine (25 μM) or WR069878 (250 μM) for 20 min after which reduction in cell viability was determined. […] DNQX is an inhibitor of non-N-methyl-D-aspartate (NMDA) receptors, whilst magnesium inhibits the functioning of the inositol 1,4,5-trisphosphate (IP3)-mediated calcium signaling pathway at several points. The effects of mefloquine and WR069878 on neuronal calcium homeostasis were assessed utilizing confocal microscopy as per Dow et al, as discussed in Antimicrob Agents Chemother. (48)2624-2632 (2004), cited above, and incorporated by reference, herein. Briefly neurons were loaded with calcium sensitive dye Fluo 3-A for 1 h and were washed prior to image experiments. Neurons were ‘spiked’ with 100 μM mefloquine or WR069878. Subsequent changes in neuronal calcium homeostasis were recorded as fluctuations in the emitted fluorescence of fluo-3-complexed calcium at 530 nm (excitation was 488 nm). Sequential image scans of fields containing 5-25 neurons were used to construct temporal profiles. Scans were made at 10 s intervals. Fluorescence levels for each neuron were normalized 12 to time zero values. Data were then pooled from three and five independent experiments for mefloquine and WR069878 respectively.
# [10] = Procedure: The AAQMs indicated in Table 1 (10 μM) were added to a mixture containing an NADPH-regenerating buffer (1.25 mM β-NADP+, 3.3 mM glucose-6-phosphate, and 3.3 mM MgCl2) and 0.5 mg/ml pooled human liver microsomes to a final volume of 125 μl. The mixtures were incubated for 5 minutes at 37° C. and the reactions were initiated by adding 25 μl glucose-6-phosphate dehydrogenase to a final concentration of 1 unit/ml. The reactions were maintained at 37° C. until they were terminated by the addition of an equal volume of 100% ice cold acetonitrile at 0, 10, 30, 60, and 120 minutes. Samples were centrifuged to pellet the proteins and the supernatant was analyzed by LC-MS/MS in duplicate using fast LC gradient or isocratic methods. AAQM concentrations were quantified with external calibration, using plots of response v. amount. Chromatograms were analyzed using the mass spectrometry software Xcalibur® QuanBrowser (for ThermoFinnigan® instruments) or MassLynx® (for Waters® instruments). Concentrations of AAQMs remaining at each time point were calculated using the unknown peak areas and corresponding calibration curves. In order to calculate the half-life, a first-order rate of decay was assumed. […] All reagents were purchased from Sigma except for the microsomes, which were obtained from BD Gentest®. For metabolite identification, samples were prepared as described above with human liver microsomes. Additional samples were prepared with for each AAQM using mouse, rat, and rhesus monkey liver microsomes. Samples were separated using an LC gradient method and analyzed by full scan LC-MS and LC-MS/MS. […] These MS/MS data were also used to do preliminary structural elucidation. […] The relative percentage of formation of each metabolite was determined in a semi-quantitative manner since standards of each metabolite were not available. Peak areas of each detected AAQM metabolite and the internal standard were determined, and their ratios were calculated as metabolite area/internal standard area. The percent formation of each metabolite was determined as the area ratio divided by the sum of all the metabolite area ratios.
# [11] = tested on: P. falciparum W2; test: In vitro antimalarial activity against P. falciparum W2; format: cell-based, Plasmodium falciparum
# Procedure: as §2
# [12] = tested on: P. falciparum D6; test: In vitro antimalarial activity against P. falciparum D6; format: cell-based, Plasmodium falciparum
# Procedure: as §2
# The combined effects of azithromycin (as represented by compound 196 on the horizontal axes of FIG. 4 through 6) and WR074086 (as represented by compound 14885 on vertical axes of FIGS. 4 through 6) against three strains of P. falciparum were investigated using isobologram analysis. First, the IC50s of each compound were determined as described above.
# [13] = single mefloquine treatment dose; cited from earlier work
compound,measurement,setting,value
"OC(c1cc(C(F)(F)F)nc2c(C(F)(F)F)cccc12)C1CCCCN1 (stereo not drawn) [Mefloquine, reference compound]",Effect on intracellular calcium (Fluo-3 fluorescence),[1],increases intracellular calcium concentrations
same,Neurotoxicity blocked by DNQX and supra-physiological magnesium,[2],is blocked
same,PgP interaction,[3],PgP substrate and inhibitor
same,Phototoxicity in mice,[4],Not phototoxic at tolerated doses
same,Maximum concentration in CNS,[5],52 µM
same,Maximum concentration in CNS,[6],113 µM
same,Activity against P. falciparum TM91C235 (IC50 in ng/ml),[7],15 ng/mL
same,IC50,"[7]; Table 4, read-out: Median IC50 against P. falciparum TM91C235",0.035 µM
same,Mean IC50 +/- SD against P. falciparum TM91C235,"[7]; control, last 15 assays",0.0157 ± 0.0027 µg/mL
same,IC90 against TM91C235,[7]; text b26,0.089 µg/mL
same,IC90 against TM90C2A,[8],0.101 µg/mL
same,IC50,"[9]; read-out: Median IC50 against rat neurons, Table 4",20 µM
same,IC50,"[9]; read-out: Neurotoxicity IC50, full dose response, FIG. 2(a)",27 µM
same,IC50,"[9]; read-out: Neurotoxicity ranking (IC50 in μM), approximate IC50 from screen at 10, 100 and 1000 μM, MTT",20 µM
same,"Half-life, human liver microsomes",[10],> 2 h
same,IC90 against W2,[11],0.0039 µg/mL
same,IC90 against D6,[12],0.02 µg/mL
same,Peak plasma concentrations,[13],800 to 8000 ng/mL

# Source: patent US20110092488A1, “Quninoline Methanol Compounds for the Treatment and Prevention of Parasitic Infections” (priority 2005, published 2011)
